In patent publication US8841420B2, “Synthetic peptide constructs for the diagnosis and treatment of periodontis associated with Porphyromonas gingivalis” (priority 1997, dated 2014):
No end group written: not given here.

Experiments:
[1] = molecular target: T1, PrtRII50 Arg-specific proteinase (Porphyromonas gingivalis, UniProt P95493); format: biochemical, Porphyromonas gingivalis W50; conditions: inhibition at similar concentrations to that which inhibited the PrtR45
T1 construct: made in house; host or cells: Porphyromonas gingivalis W50 (native enzyme purified from cell sonicate, not recombinant)
T1 sequence (P95493 230-736): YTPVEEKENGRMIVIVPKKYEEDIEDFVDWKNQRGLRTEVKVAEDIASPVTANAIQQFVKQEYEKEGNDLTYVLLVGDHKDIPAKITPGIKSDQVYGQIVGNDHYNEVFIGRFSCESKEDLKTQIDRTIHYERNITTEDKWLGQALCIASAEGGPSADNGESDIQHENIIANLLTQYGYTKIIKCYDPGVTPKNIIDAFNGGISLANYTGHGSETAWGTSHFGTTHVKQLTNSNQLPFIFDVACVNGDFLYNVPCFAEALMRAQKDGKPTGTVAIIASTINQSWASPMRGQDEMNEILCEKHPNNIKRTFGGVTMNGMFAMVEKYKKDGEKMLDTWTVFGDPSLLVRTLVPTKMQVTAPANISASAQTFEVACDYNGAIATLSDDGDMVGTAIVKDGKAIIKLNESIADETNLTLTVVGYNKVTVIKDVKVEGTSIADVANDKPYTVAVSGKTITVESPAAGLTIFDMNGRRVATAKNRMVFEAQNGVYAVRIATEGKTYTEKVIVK
Description: P. gingivalis W50 was grown in batch culture (5 L) and harvested at late logarithmic phase by centrifugation (5,000×g, 20 min, 4° C.). Cells were washed once with 150 ml TC buffer (20 mM Tris-HCl pH 7.4 and 5 mM CaCl2) containing 50 mM NaCl and sonicated as described previously (Bhogal et al., 1997). The sonicate was centrifuged (100,000×g, 30 min, 4° C.) and the supernatant filtered (0.22 μm) prior to anion-exchange FPLC. The sonicate was applied to an anion-exchange column (Hiload XK 16/10 Q Sepharose, Pharmacia-LKB) cooled to 4° C., in multiple injections using a 50 ml superloop (Pharmacia-LKB). The sonicate was eluted using a linear gradient from 0-100% buffer B over 90 min at a flow rate of 2.0 ml min^−1. Absorbance was monitored at 280 nm and elutant collected at 4° C. in 6 ml fractions using a Frac 100 fraction collector (Pharmacia-LKB). Buffer A was TC buffer containing 50 mM NaCl and buffer B was TC buffer containing 500 mM NaCl. Fractions were analysed for proteolytic and amidolytic activity using azocasein (A-2765, Sigma Chemical Co. St Louis, Mo.), benzoyl-L-Arg-p-nitroanilide (Bz-L-Arg-pNA, Sigma) and benzyloxycarbonyl-L-Lys-p-nitroanilide (z-L-Lys-pNA, Calbiochem, Melbourne, Australia) as described previously (Bhogal et al., 1997) except that fractions were pre-incubated with 10 mM cysteine for 10 min at 25° C. before the addition of substrate. For the amidolytic assays absorbance was monitored at 410 nm as previously described (Bhogal et al., 1997) and the amidolytic activity expressed as U where U=μmol substrate converted min^−1 at 25° C. Anion-exchange fractions eluting between 160-246 mM NaCl containing the highest ratio of Arg-specific to Lys-specific activity were, washed and concentrated in TC buffer containing 150 mM NaCl using a centripep and centricon 10 concentrators (Amicon) and applied to a gel filtration column (Superose 12, HR 10/30, Pharmacia-LKB) using TC buffer containing 150 mM NaCl at a flow rate of 0.3 ml min^−1. Absorbance was monitored at 280 nm and fractions collected at 4° C. using a Frac 100 fraction collector. The Mr values of eluant peaks were determined using gel filtration molecular mass standards (Pharmacia-LKB). The peak eluting at 50 kDa containing only Arg-specific amidolytic activity was washed in TC buffer containing 50 mM NaCl using a centricon-10 concentrator (Amicon) and applied to a Mono Q (HR 5/5) anion-exchange column using a 5 ml loop and eluted using a linear gradient of 0-100% buffer B at a flow rate 1.0 ml min^−. Buffer A was TC buffer containing 150 mM NaCl, buffer B was TC buffer containing 500 mM NaCl. Absorbance was monitored at 280 nm and fractions collected at 4° C. using a Frac 100 fraction collector.

[2] = tested on: Porphyromonas gingivalis strain 33277; assay: Murine lesion (abscess) model, immunisation then P. gingivalis challenge; format: in vivo, BALB/c mice; conditions: for Maximum lesion size: BALB/c mice immunised s.c. with 50 μg antigen (or 2×10^9 killed cells) in CFA then IFA, s.c. challenge 8×10^9 cells, measured over 10 days; for protection against P. gingivalis challenge (lesion size), in words: relative to DT or adjuvant alone controls
Description: BALB/c mice (6 per group) were inoculated (s.c.) with 50 μg of antigen emulsified in CFA and IFA for the primary and secondary inoculations and then challenged (s.c.) with 8×10^9 cells of P. gingivalis strain 33277.
BALB/c mice 6-8 weeks old were immunised subcutaneously with either 50 μg of the peptide-DT conjugate, 50 μg of DT or 2×10^9 formalin killed cells of Porphyromonas gingivalis strain 33277 emulsified in complete Freund's adjuvant (CFA). After 30 days the mice were injected subcutaneously with antigen (either 50 μg of the peptide-DT conjugate, 50 μg of DT or 2×10^9 formalin killed cells of Porphyromonas gingivalis strain 33277) emulsified in incomplete Freund's adjuvant (IFA) and then bled from the retrobulbar plexus 12 days later. All mice were challenged with 8×10^9 cells of P. gingivalis (200 μL) by subcutaneous injection in the abdomen and weighed and lesion size measured over 10 days. Lesion sizes are expressed as mm^2 and were statistically analysed using a Kruskal-Wallis one-way ANOVA and Mann-Whitney U-Wilcoxon rank sum W test.

[3] = tested on: TLCK-inactivated PrtR-PrtK proteinase-adhesin complex; assay: Competitive binding assay (ELISA, ABM peptide-coated plates); set-up: species or system Porphyromonas gingivalis W50; conditions: for inhibition of binding of the TLCK-inactivated PrtR-PrtK complex to the adsorbed ABM peptide: competitor in solution; for binding of the PrtR-PrtK complex to the substance: TLCK-inactivated complex
Description: Competitive Binding Assay
Wells of flat-bottomed polyvinyl microtitre plates (Microtitre, Dynatech Laboratories, VA) were coated overnight at 4° C. using a solution (5 mg/ml) of the adhesin binding motif (ABM) peptide in 0.1M phosphate buffered saline, pH 7.4, containing 0.1% v/v Tween 20 (PBST) and 0.1% w/v sodium azide. After removal of the coating solution, 2% w/v skim milk powder in PEST was added to block the remaining uncoated plastic for 1 hour at room temperature and then washed (4×PBST). A solution (1 mg/ml) of the PrtR-PrtK proteinase-adhesion complex (inactivated with 1 mM TLCK) was incubated with known concentrations of ABM peptide, control peptide and casein for 1 hour and then transferred to the microtitre plates coated with the ABM peptide. Following incubation for 2 hours at 37° C. the plates were washed (5×PBST). A 1/10,000 dilution of rabbit anti-PrtR-PrtK antisera in PBST containing 1% w/v skim milk powder was then added to the washed wells and incubated for 2 hours at 37° C. Bound antibody was detected by incubation with horseradish peroxidase-conjugated goat immunoglobulin (Ig) directed against rabbit Ig (BioRad, Richmond, Calif.) for 1.5 hours at 37° C. After washing (5×PBST), substrate (0.4 mM 3,3′,5,5′-tetramethylbenzidine in 0.1M sodium acetate/citric acid buffer containing 0.004% v/v hydrogen peroxide) was added and colour development was stopped by addition of 2M H2SO4. Optical density (O.D.) at 450 nm was measured using a BioRad microplate reader model 450.

With `NCCc1ccc(S(=O)(=O)F)cc1` [4-(2-aminoethyl)-benzenesulfonyl fluoride] the “effect on activity of the Arg-specific 50 kDa enzyme” value (shortened to “effect on activity”) [1] was “not inhibited”.

For `O=C(O)CN(CCN(CC(=O)O)CC(=O)O)CC(=O)O` [EDTA], the “effect on activity” value [1] was “inhibited”.

With `N[C@@H](CS)C(=O)O` [cysteine] the “effect on activity” value [1] was “activated”.

In the case of `CC(=O)N[C@@H](CC(C)C)C(=O)N[C@@H](CC(C)C)C(=O)N[C@H](C=O)CCCNC(=N)N` [leupeptin], the “effect on activity” value [1] is reported as “inhibited”.

With `O=S(=O)(F)Cc1ccccc1` [phenylmethyl sulfonyl fluoride] the “effect on activity” value [1] was “not inhibited”.

“ABM3 (K44)-OT: ABM3 (R44) peptide (SEQ ID NO: 98) conjugated to diphtheria toxoid (VTLKWDAPNGTPNPNPNPNPNPNPGTTTLSESF-NH2; not fully specified (N-terminus); also: conjugated to diphtheria toxoid; listed as Porphyromonas gingivalis)” gave a Maximum lesion size [2] of 12.27 mm^2.

In the case of “ABM4 (K44)-DT: ABM4 (K44) peptide (SEQ ID NO: 35) conjugated to diphtheria toxoid (WIERTVDLPAGTKYVAFRHY-NH2; not fully specified (N-terminus); also: conjugated to diphtheria toxoid; listed as Porphyromonas gingivalis)”, the Maximum lesion size [2] is reported as 18.83 mm^2.

In the case of “ABM5 (R15)-DT: ABM5 (R15) peptide (SEQ ID NO: 50) conjugated to diphtheria toxoid (PAEWTTIDADGDGQGW-NH2; not fully specified (N-terminus); also: conjugated to diphtheria toxoid; listed as Porphyromonas gingivalis)”, the Maximum lesion size [2] is reported as 14.79 mm^2.

“Control peptide-DT: Control peptide PrtR27 (1432-1463) (SEQ ID NO: 97) conjugated to diphtheria toxoid (ANEAKVVLAADNVWGDNTGYQFLLDADHNTFG; also: conjugated to diphtheria toxoid; listed as Porphyromonas gingivalis) [reference compound]” was tested, and the Maximum lesion size [2] was 36.61 mm^2 and the “protection against P. gingivalis challenge (lesion size), in words” value [2] was “did not provide protection”.

With “Diphtheria Toxoid [DT, reference compound]” the Maximum lesion size [2] was 33.59 mm^2 and the “protection against P. gingivalis challenge (lesion size), in words” value [2] was “does not provide protection”.

In the case of “FNGGISLANYTGHGSETAWGT (listed as Porphyromonas gingivalis) [PAS1 (R45)]”, the “inhibition of binding of the TLCK-inactivated PrtR-PrtK complex to the adsorbed ABM peptide” value ([3]; FIG. 10) is reported as “did not inhibit”.

For “PAS1 (R45)-DT: PAS1 (R45) peptide (SEQ ID NO: 1) conjugated to diphtheria toxoid (FNGGISLANYTGHGSETAWGT; also: conjugated to diphtheria toxoid; listed as Porphyromonas gingivalis)”, the Maximum lesion size [2] was 10.46 mm^2 and the “protection against P. gingivalis challenge (lesion size), in words” value [2] was “Significantly reduced lesion size”.

“PYQPVSNLTATTQGQKVTLKWDAPSTK [ABM1 (R45)]” was tested, and the “molar excess of peptide in solution required to inhibit binding of the complex to the ABM peptide adsorbed onto the microtitre plate” value ([3]; TLCK-inactivated PrtR-PrtK complex 1 mg/ml, FIG. 10) was 5-100 fold and the “binding of the PrtR-PrtK complex to the substance” value [3] was “Specific binding”.

With casein [reference compound] the “binding of the PrtR-PrtK complex to the substance” value [3] was “lack of binding” and the “inhibition of binding of the TLCK-inactivated PrtR-PrtK complex to the adsorbed ABM peptide” value ([3]; FIG. 10) was “did not inhibit”.
